This is an account of results in patent US11111375B2, “Compositions and methods for generating oligodendrocyte precursors” (The Regents of the University of California, priority 2015, dated 2021).

One test deals with H9 cells. Put plainly: ICC of OPC maturation markers (O4, SOX10, NKX2.2, OLIG2) in H9 cells. It is filed as cell-based, human. The method, then: (§1) Following expansion, hPSCs were cultured in early OPC differentiation medium as described in FIG. 4A and fed daily with neural induction medium. Briefly, cells were first patterned with the dual-SMAD inhibitors LDN193189 and SB431542, and then ventralized using SHH or SAG. In some conditions, cells were caudalized using RA. On day 11 of the differentiation, cell-aggregates were split at a 1 to 3 ratio, broken into smaller-size aggregates by gentle pipetting (up and down, 10-15 times), re-encapsulated in the thermoresponsive gel, and fed with OPC proliferation medium. O1 ng/mL of FGF-2 (Peprotech) was then added to the OPC proliferation media described in FIG. 7A (added daily from day 14 until day 18, or from day 20 until day 24 of the differentiation). After FGF treatment, cells were fed every 2-3 days with OPC maturation medium, which included 20 μg/mL of L-Ascorbic Acid (Sigma) from day 75 until day 95. See FIG. 20 for a detailed description of the differentiation conditions.
For ICC analysis of cells differentiated in 3D, cell-spheres were transferred onto poly-D-lysine (10 μg/mL) and laminin (10 μg/mL)-coated glass-bottom plates, and incubated with their respective medium to enable cell spreading. After 48 hr (for early OPC differentiation) or 5 days (for late stage OPC analysis), cells were fixed with 4% PFA for 15 min at RT. After one wash with PBS, cells were incubated overnight at 4° C. with primary antibody in freshly prepared staining primary solution (5% donkey serum, (DS), 2% bovine serum albumin (BSA) and 0.25% Triton X-100 in PBS). Then, cells were gently washed twice with PBS, and incubated for 2 hr at room temperature (RT) with secondary antibodies and 4′,6-diamidino-2-phenylindole (DAPI) (1:1000) in freshly prepared secondary staining solution (2% DS, 2% BSA and 0.25% Triton X-100 in PBS). Cells were then washed three times with PBS and imaged using a Zeiss Axio Observer epi-fluorescent microscope. Image Xpress Micro (IXM) was used for ICC quantification analysis, and Zeiss LSM 710 Axio Observer was used for confocal imaging. Images were analyzed using ImageJ and quantified using CellProfiler.

The next test concerns H9 hESCs. Put plainly: Preliminary comparison of SHH and SAG for early OPC differentiation (ICC). It counts as cell-based, human. The note with it: 3D, 13 days. The method, then: as §1, with “See FIG. 20 for a detailed description of the differentiation conditions.” left out
For ICC analysis of cells differentiated in 3D, cell-spheres were transferred onto poly-D-lysine (10 μg/mL) and laminin (10 μg/mL)-coated glass-bottom plates, and incubated with their respective medium to enable cell spreading. […] Image Xpress Micro (IXM) was used for ICC quantification analysis, and Zeiss LSM 710 Axio Observer was used for confocal imaging. Images were analyzed using ImageJ and quantified using CellProfiler.

The mark [1] stands for this setting: early FGF treatment: FGF-2 daily day 14 to day 18.

Turning to Vitamin D [reference compound], the “O4 expression among treated cells” value in the test on H9 cells (0.1 μM from day 66 to day 95, H9 hESCs, condition 6 and early FGF) is “no increase”.
Consider `CNC1CCC(N(Cc2cccc(-c3ccncc3)c2)C(=O)c2sc3ccccc3c2Cl)CC1` (centres unmarked) [SAG], for which the “differences in NKX2.2 and OLIG2 expression, SHH vs SAG” value in the test with H9 hESCs is “only minor differences”.
In the case of “FGF-2: basic fibroblast growth factor-2 added to OPC proliferation medium”, the “fewer O4+ OPCs than with early FGF treatment” value in the test on H9 cells (FGF-2 from days 20-24, day 95) is listed as ~4 fold. For the same molecule, in the test with H9 cells (setting [1]), the “OPC differentiation on day 24 versus analogous condition without FGF” value was “similar” and the “number of cells expressing O4 by day 95” value is given as “increased”.
